From US9126999B2, “Tetrahydropyrazolopyrimidine compounds” (EISAI R&D MANAGEMENT CO., LTD., priority 2012, dated 2015)
pIC50: −log10 of the molar value. Several values for one entry are separate records, joined by “and”; a condition that tells them apart may be missing. Equal values may be shown once. Read-outs that look alike come from different tables or passages of the source.

Legend:
Human TLR8 = biological target: T1, Human TLR8 (Homo sapiens, UniProt Q9NR97); assay: HEK-293 NF-kappaB luciferase reporter assay, CL097 stimulus; format: cell-based
T1 construct: host or cells: HEK-293 stably expressing human TLR8, then transfected with pNiFty2(NF-kappaB)-luciferase
T1 sequence (Q9NR97 27-1041): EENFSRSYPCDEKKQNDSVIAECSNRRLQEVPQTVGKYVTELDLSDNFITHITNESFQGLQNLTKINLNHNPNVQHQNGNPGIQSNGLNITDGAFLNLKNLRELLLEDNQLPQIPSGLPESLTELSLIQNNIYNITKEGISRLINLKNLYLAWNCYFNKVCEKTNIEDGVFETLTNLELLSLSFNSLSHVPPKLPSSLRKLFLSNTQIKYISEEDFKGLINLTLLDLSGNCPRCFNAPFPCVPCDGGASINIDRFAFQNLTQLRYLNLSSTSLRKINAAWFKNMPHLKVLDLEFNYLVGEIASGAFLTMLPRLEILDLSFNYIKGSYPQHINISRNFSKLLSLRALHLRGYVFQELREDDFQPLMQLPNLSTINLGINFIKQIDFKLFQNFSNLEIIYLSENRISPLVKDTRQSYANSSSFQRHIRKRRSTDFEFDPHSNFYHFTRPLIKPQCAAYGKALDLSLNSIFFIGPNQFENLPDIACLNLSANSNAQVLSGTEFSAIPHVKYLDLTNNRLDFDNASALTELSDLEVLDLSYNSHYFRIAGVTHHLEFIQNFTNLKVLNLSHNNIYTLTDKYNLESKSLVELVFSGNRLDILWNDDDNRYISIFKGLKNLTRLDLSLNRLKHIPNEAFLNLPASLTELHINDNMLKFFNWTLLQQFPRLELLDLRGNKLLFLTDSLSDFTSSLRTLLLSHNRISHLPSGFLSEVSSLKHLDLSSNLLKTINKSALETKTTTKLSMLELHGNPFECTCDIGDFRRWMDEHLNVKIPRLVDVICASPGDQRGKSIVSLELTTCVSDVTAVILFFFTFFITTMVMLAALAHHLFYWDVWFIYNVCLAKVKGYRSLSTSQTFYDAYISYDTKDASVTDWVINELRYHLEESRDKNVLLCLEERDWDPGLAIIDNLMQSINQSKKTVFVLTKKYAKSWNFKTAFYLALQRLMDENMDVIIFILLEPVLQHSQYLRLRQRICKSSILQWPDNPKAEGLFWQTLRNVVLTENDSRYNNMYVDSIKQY
Excerpt: In vitro pharmacology: HEK-293 cells (ATCC) were engineered to stably express a NF-kappaB transcription factor inducible E-selectin (ELAM-1) luciferase reporter derived from the plasmid pGL3 (Promega) containing base pairs −2241 bp to −254 bp from the promoter of the human E-selectin gene (Accession No. NM_000450). These cells were then subsequently engineered to stably and individually express human TLR4, TLR7 or TLR9 full-length ORF cDNAs. Human TLR4 cDNA (Accession No. NM_138554) was cloned into pcDNA 3.0 expression vector (Invitrogen). TLR4 transfected cells were also engineered to express human MD-2 co-receptor [MD-2 cDNA (Accession No. NM_015364) was cloned into the pEF-BOS vector] and were supplemented with 10 nM soluble CD14 (R&D Systems) in the media to optimize LPS responsiveness. Human TLR9 cDNA (Accession No. NM_017442) was cloned into the pBluescript II KS vector (Agilent). Human TLR7 cDNA (Accession No. NM_016562) was obtained from OriGene. HEK-293 cells stably expressing human TLR8 (Accession No. NM_138636) or mouse TLR7 (Accession No. NM_133211) were purchased from InvivoGen and were then stably transfected with pNiFty2(NF-kappaB)-luciferase reporter plasmid (InvivoGen). Each cell type was plated in Dulbecco's modified Eagle's medium (DMEM) containing 10% fetal bovine serum (FBS) at a density of 2.22×10^5 cells/ml into a 384-well plate and incubated for 2 days at 37° C., 5% CO2. Varying concentrations of antagonist compounds were then added. Cells were then incubated for another 30 minutes before adding the appropriate TLR agonist as follows (final concentrations indicated): lipopolysaccharide (LPS; Sigma) at 10 ng/ml for TLR4, CL097 (InvivoGen) at 3 ug/ml for human TLR7 and TLR8 and mouse TLR7, and CpG-2006-2A [sequence: […] (SEQ ID NO: 1) with phosphorothioate backbone, synthesized by Sigma-Aldrich] at 0.6 uM for TLR9.

Human TLR7/8 = tested on: T2, Human TLR7/8; assay: Human PBMC cell-based assay, RNA-Ig (SL4-Ig) stimulus, cytokine ELISA
T2 construct: IC50; other: Hu PBMC; ligand RNA-Ig; analyte IL-6; analyte TNFα; ligand R848; IC50 against the RNA-Ig TLR7/8 stimulus; cytokine responses to RNA-Ig complexes in vitro; potency against the RNA-Ig TLR7/8 stimulus versus HCQ
Experimental: Briefly, 25 ml blood was diluted with 15 ml PBS (without Ca^2+, Mg^2+) in a 50 ml conical tube, and 12 ml Histopaque was underlaid using a spinal needle. Tubes were centrifuged for 45 minutes at 1200 rpm (350×g), and PBMC were collected from the buffy coat. Cells were then washed twice in PBS, and red blood cells were lysed by suspension in 5 ml ammonium chloride solution (1× Red Blood Cell Lysis Buffer, eBioscience) for 5 minutes at room temperature.
Antagonist compounds solubilized and serial diluted in 100% DMSO were added in triplicate to cells to yield a final concentration of 0.1% DMSO (v/v). Hydroxychloroquine (Acros Organics) solubilized and serial diluted in PBS was added in triplicate to cells. […] The resulting “RNA-Ig” stimulus was incubated at room temperature for 15-30 minutes before adding to cells. PBMC were incubated with the various TLR agonists for 20 hours at 37° C., 5% CO2. Cell culture supernatants were collected, and levels of various human cytokines were assessed as indicated by standard ELISA procedure according to the manufacturer's recommended protocol (BD Biosciences, Inc., San Diego, Calif.).

[1] = human TLR8 in the HEK-293 assay format, read-out: HEK/TLR8 IC50
[2] = Human PBMC IL-6 Inhibition (SL4-Ig Ligand), read-out: Human PBMC IC50

| pIC50 (Human TLR8; [1]) | pIC50 (Human TLR7/8; [2]) | SMILES | pIC50 (Human TLR8; HEK-293, ligand CL097, analyte NFkB-luciferase, read-out: IC50) | cytokine responses to RNA-Ig complexes in vitro (Human TLR7/8) | pIC50 (Human TLR7/8; Hu PBMC, ligand RNA-Ig, analyte TNFα, read-out: IC50) | potency against the RNA-Ig TLR7/8 stimulus versus HCQ (Human TLR7/8; ratio of IC50 values, more potent than HCQ) | pIC50 (Human TLR7/8; read-out: IC50 against the RNA-Ig TLR7/8 stimulus) |
| --- | --- | --- | --- | --- | --- | --- | --- |
| 6.49 | 5.67 | Cc1nn(C)cc1[C@@H]1C[C@H](C(F)(F)F)n2nc(-c3ccc(NC(N)=O)cc3)cc2N1 [ER-894595] |  |  |  |  |  |
| 6.55 | 6.17 | COc1ccc([C@@H]2C[C@H](C(F)(F)F)n3nc(-c4ccncc4)cc3N2)cc1OC [ER-885454] |  |  |  |  |  |
| 6.27 | 5.76 | Cc1nn(C)cc1[C@H]1C[C@@H](C(F)(F)F)n2nc(-c3ccc(NC(N)=O)cc3)cc2N1 [ER-894596] |  |  |  |  |  |

| SMILES | pIC50 (Human TLR8; [1]) | pIC50 (Human TLR7/8; [2]) | pIC50 (Human TLR8; HEK-293, ligand CL097, analyte NFkB-luciferase, read-out: IC50) | cytokine responses to RNA-Ig complexes in vitro (Human TLR7/8) | pIC50 (Human TLR7/8; Hu PBMC, ligand RNA-Ig, analyte TNFα, read-out: IC50) | potency against the RNA-Ig TLR7/8 stimulus versus HCQ (Human TLR7/8; ratio of IC50 values, more potent than HCQ) | pIC50 (Human TLR7/8; read-out: IC50 against the RNA-Ig TLR7/8 stimulus) |
| --- | --- | --- | --- | --- | --- | --- | --- |
| COc1ccc([C@@H]2C[C@H](C(F)(F)F)n3nc(-c4ccc(C(=O)N5CCNCC5)cc4)cc3N2)cc1OC [ER-892887, (4-((5S,7R)-5-(3,4-dimethoxyphenyl)-7-(trifluoromethyl)-4,5,6,7-tetrahydropyrazolo[1,5-a]pyrimidin-2-yl)phenyl)(piperazin-1-yl)methanone] |  | 7.40 and 7.29 | 7.10 | blocks | 7.89 | approximately 100 fold | 7.82 |
